Assay results: US10342806B2, “Hormone treatment for age-related hearing loss-presbycusis” (priority 2014, dated 2019)

Assays:
[1] = test system: mineralocorticoid receptors (MCR); assay: MCR expression in spiral ganglion neurons (western blot, immunohistochemistry); format: in vivo, mouse; details: middle-aged mice, ALD treatment vs young adult and middle age controls
Experimental: Death was confirmed by terminal phlebotomy/exsanguinations and perfusion.
After sacrifice, a cochlear modiolus (CM) was dissected from the temporal bone, & pooled together for measuring NKCC1 protein and mRNA expression. The other CM was prepared for immunohistochemistry as described below. Data was analyzed using one-way ANOVA, and two-way repeated measures ANOVA through GraphPad Prism 5.0 with protein level measurements (Δ Intensity=Background tissue intensity−experimental area intensity) (GraphPad Software, La Jolla, Calif.).
For Western blot and RT-PCR, cells were placed in RIPA buffer and sonicated. Protein concentration was measured using the Bradford method. Proteins were separated by SDS-PAGE. […]
For immunohistochemistry, mice were sacrificed, and one of the cochleae dissected, fixed in 4% paraformaldehyde in PBS overnight at 4° C., decalcification in 10% EDTA in PBS for a week at 4° C., and incubated in cryoprotection solution overnight at 4° C. […] The spiral ganglion neurons were counted by Metamorph imaging software (Molecular Devices, Center Valley, Pa. 18034-0610) and data analyzed by GraphPad Prism (GraphPad Software, Inc. La Jolla, Calif.).
Levels of staining for MCR presence in young adult and middle-aged mice was determined by densitometry analysis (MetaMorph Image Analysis System) of immunocytochemistry sections.

NKCC1 [2] = assay: NKCC1 protein expression in HT-29 cells, Western blot; format: cell-based, human
Description: Cell culture and buffers. […] Arch Oral Biol 52: 411-416, 2007). These include, for example, studies of COMM domain-containing protein 1, which is involved in NKCC1 ubiquitination and transcriptional regulation of epithelial Na^+ channels (ENaC) located in the apical membrane of polarized epithelial cells, in particular, cells in the colon, kidney, and lung, by ALD (Cohen, et al., Induced differentiation in HT29, a human colon adenocarcinoma cell line. J Cell Sci 112: […], 1999, Epple, et al., Early aldosterone effect in distal colon by transcriptional regulation of ENaC subunits. Am J Physiol Gastrointest Liver Physiol 278: G718-G724, 2000, Smith, et al., COMMD1 interacts with the COOH terminus of NKCC1 in Calu-3 airway epithelial cells to modulate NKCC1 ubiquitination. Am J Physiol Cell Physiol 305: C133-C146, 2013). HT-29 cells were grown in DMEM media (Invitrogen, Carlsbad Calif.) with 10% FBS and antibiotics. Cells were grown in a humidified 95%/5% CO2 incubator at 37° C. Experiments were performed at 70-80% confluence.
Western blot. Cell lysates were prepared in RIPA buffer (Pierce 89901; Thermo Scientific, Waltham, Mass.) with protease inhibitor cocktail (78430; Thermo Scientific). Cell samples were homogenized in buffer, followed by centrifugation at 2,000 rpm for 10 min at 4° C. Supernatants were subjected to Western blot analysis by loading 200 μg of protein per lane, after the protein concentrations were determined by Bradford protein assay. Proteins were fractionated by SDS-PAGE gel electrophoresis and transferred to a PVDF blotting membrane (Whatman, Piscataway, N.J.). The blot was incubated with primary antibodies against β-actin and Na—K-2C1 cotransport protein (Cell Signaling, Danvers Mass.); primary antibodies for p-SGK1, SGK1, pNedd4-2, and Nedd4-2 were utilized (concentration 1:1,000). The secondary antibody was horseradish peroxidaseconjugated goat anti-rabbit IgG (1:2,000; Cell Signaling).
Statistical analysis. Images from films were imported into Adobe Photoshop (v 5.0), and further processed using Adobe Photoshop CS and ImageJ (National Institutes of Health) for the densitometry analysis. Data are reported as means±SD. Statistical analyses were performed with PRISM 4.0 (GraphPad Software, San Diego Calif.). Differences were analyzed with a one- or a two-way repeated measures ANOVA as appropriate or a two-way ANOVA followed by Bonferroni post hoc analyses that were corrected for multiple comparisons. Values of P <0.05 were considered significant.

iNOS and nNOS = iNOS and nNOS expression in modiolar tissue samples; format: in vivo, mouse; details: young adult, control middle-aged, ALD-treated middle-aged mice
Experimental: During treatment, blood pressures were measured for the mice at 2 and 4 months after start of treatment. […] Death was confirmed by terminal phlebotomy/exsanguinations and perfusion. Cell lysates were collected and subject to western blot and RT-PCT analysis. The cells were placed in RIPA buffer and sonicated. Protein concentration was measured using the Bradford method. Proteins were separated by SDS-PAGE. The antibodies used for western blot were: anti-iNOS, nNOS and caspase-3 antibodies (Cell Signaling, Cambridge, Mass.). Total cellular RNA was extracted using the RNeasy Plus Mini Kit (74134). For RT-PCR, 10 ng of total cellular RNA was reverse transcribed and complementary DNA was amplified, using the Enhanced Avian HS RT-PCR-100 Kit (Sigma, HSRT20). Primers used for qRT-PCR were as follows: […]

CBA mice = details: ALD-treated aging CBA mice (Halonen et al. 2014); cited from earlier work
NKCC1 [3] = details: Jiang et al. 2003, cited from earlier work

For `C[C@]12CCC(=O)C=C1CC[C@@H]1[C@@H]2[C@@H](O)C[C@]2(C=O)[C@@H](C(=O)CO)CC[C@@H]12` [ALD, aldosterone], the “MCR expression levels, densitometry of immunocytochemistry sections” value [1] was “partially rescued the expression levels seen in the young adult”, the “induction of NKCC1 protein expression” value (NKCC1 [2]; ALD 1 μM, MG-132 20 μM, CQ 50 μM, 9 h) was “induce NKCC1 protein expression similarly” and the “decline of NKCC1 protein levels in response to cycloheximide” value (NKCC1 [2]; ALD 1 μM, cycloheximide 20 μg/ml, 3, 6, or 9 h, relative to nontreated cells) was “much slower”. The “threshold of NKCC1 induction (significant response)” value (NKCC1 [2]; HT-29 cells) was roughly 10 pM, the “time by which NKCC1 up-regulation took effect” value (NKCC1 [2]; HT-29 cells, ALD 1 μM) was no more than 2 h and the “NKCC1 protein expression levels” value (NKCC1 [2]; HT-29 cells, ALD 1 μM, stable over 12-24 h) was “upregulated”. The “start of NKCC1 induction after treatment” value (NKCC1 [2]; HT-29 cells, ALD (1 nM)) was 30 to 40 min, the “iNOS and nNOS gene expression” value (iNOS and nNOS) was “no alteration in NOS expression” and the iNOS protein levels (iNOS and nNOS) was “approximately the same”. The “auditory temporal processing (prepulse inhibition)” value (CBA mice) was “provocative increases in auditory temporal processing”, the “NKCC1 transcripts, real-time polymerase chain reaction” value (NKCC1 [3]) was “did not elevate NKCC1 transcripts” and the “increase in NKCC1 activity” value (NKCC1 [3]; adrenalectomized rats, multiday treatment) was 63%.
